Results reported in patent publication US20250098683A1 (priority 2018, published 2025).

Tests used:
[1] = system: bacteria; experiment: Treated, dried seeds placed on LB or PDA plates; assay type: cell-based
Method: (§1) Carrot, Swiss chard, and spinach seeds (1 kg, 5 kg, and 5 kg respectively) were placed into separate Petri dishes. From each of these seeds, 9 samples were taken, each sample weighing 50 grams. […] The liquid of carrot and Swiss chard treatments were streaked on LB media plates, and kept in a 37 degrees Celsius incubator overnight, and inspected for bacterial growth on the following day. The treated seed were dried in 40 C oven for three days, and some seeds were placed on LB or PDA plates.

[2] = system: bacteria; experiment: Seed wash liquid streaked on LB media plates, inspected for bacterial growth; assay type: cell-based; conditions: treated five minutes, 37 C overnight
Method: as §1

For `[Na+].[O-]Cl` [1.2% bleach, Sodium hypochlorite], the “Swiss chard seeds from which bacteria were found” value ([1]; Swiss chard seeds on LB plates) was “about 50%”, the “carrot seeds from which bacteria were found” value ([1]; carrot seeds, three days after placing on LB plates) was “about 50%” and the “microbes found from spinach seed” value ([1]; spinach seeds on plates) was “both fungal and bacterial microbes were found”. For the same compound, the “bacteria in wash liquid after Swiss chard seeds were washed” value ([2]; Swiss chard seeds) was “some bacteria” and the “bacteria in wash liquid after carrot seeds were washed” value ([2]; carrot seeds) was “some bacteria”.
